In patent publication US20090215884A1, “METHOD FOR WOUND HEALING” (priority 2005, published 2009):

Assays:
dermal fibroblasts = assay: Fibroblast populated collagen lattice (FPCL) reorganization/contraction; format: cell-based, human; settings: 0.1 μg/ml PEP005
Excerpt: A normal adult skin biopsy (6 mm) was obtained (n=1), with informed consent, from an individual attending the Oral Surgery Clinic, School of Dentistry, Wales College of Medicine, Cardiff. Following the application of a local anaesthetic, the dermal biopsy was collected and adult dermal fibroblast cultures established by single cell suspension technique, following enzymic degradation of the specimen. This technique has previously been reliably used to establish viable primary cultures of both oral and dermal fibroblasts in vitro (Cook et al, 2000; Stephens et al, 2001; 2003). […]
The ability of dermal fibroblasts to remodel/reorganize their ECM environment in the presence of PEP005 was examined by fibroblast populated collagen lattices (FPCLs), according to Cook et al (2000). […] The degree of ECM reorganization/lattice contraction was quantified from three separate lattice diameter measurements performed on each of the three replicate samples, at days 1, 2, 3, 4, 5, 6, 7, 10 and 14, after initial fabrication. […]
Each experiment was performed on two separate occasions, with the % reductions in lattice contraction and the MMP densitometric values obtained being expressed as an average for each group of samples

Me10538 cells = assay: Cytokine production by PEP005-treated human melanoma cells; format: cell-based; settings: 6 h, supernatant
Protocol: Cytokine production by PEP005-treated human cells Confluent cultures of Me10538 cells, keratinocytes, fibroblasts and neutrophils were incubated for 6 h in the absence or presence of PEP005 (1-100 ng/ml). The supernatants were harvested and analyzed for the presence of the following cytokines; TNF-α, IL-6 and IL-8 using a multiplex detection kit (Biosource International, Nivelles, Belgium). Units of detected proteins are pg/ml.

In the case of `C/C=C(/C)C(=O)O[C@H]1C(C)=C[C@]23C(=O)[C@@H](C=C(CO)[C@@H](O)[C@]12O)[C@H]1[C@@H](C[C@H]3C)C1(C)C` [PEP005, ingenol-3-angelate], the “Type I collagen lattice contraction” value (dermal fibroblasts) is reported as “significantly increased”, the IL-8 (Me10538 cells; PEP005 1 ng/ml) is reported as less than 2 pg/mL and the IL-8 (Me10538 cells; PEP005 5 ng/ml) is reported as 210 ± 6 pg/mL. For the same compound, the IL-8 (Me10538 cells; PEP005 10 ng/ml) was 737 ± 26 pg/mL and the IL-8 (Me10538 cells; PEP005 100 ng/ml) was 390 ± 18 pg/mL.
